Read-outs that look alike come from different tables or passages of the source.
Assays:
BTK = biological target: T1, BTK (Homo sapiens, UniProt Q06187); test: Inhibitory activity against BTK, ADP-Glo Kinase system (Promega); type: biochemical
T1 construct: purchased Signalchem B10-10H
Method in brief: (§1)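 IC50 values were fitted from kinase reactions run for 1 h at 30°C with either 1 mM ATP or ATP at Km (10 µM for BTK, 25 µM for ITK). Reactions used 0.2 µg/µl poly(Glu4,Tyr1), recombinant human enzyme (BTK 10 ng, ITK 4 ng per reaction) in Tris pH 7.5 Mn/Mg buffer with 1% DMSO. ADP formed was read by ADP-Glo luminescence.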

ITK = biological target: T2, ITK (Homo sapiens, UniProt Q08881); test: Inhibitory activity against ITK, ADP-Glo Kinase system (Promega); type: biochemical
T2 construct: purchased Signalchem I13-11G-10
T2 sequence (Q08881 1-620): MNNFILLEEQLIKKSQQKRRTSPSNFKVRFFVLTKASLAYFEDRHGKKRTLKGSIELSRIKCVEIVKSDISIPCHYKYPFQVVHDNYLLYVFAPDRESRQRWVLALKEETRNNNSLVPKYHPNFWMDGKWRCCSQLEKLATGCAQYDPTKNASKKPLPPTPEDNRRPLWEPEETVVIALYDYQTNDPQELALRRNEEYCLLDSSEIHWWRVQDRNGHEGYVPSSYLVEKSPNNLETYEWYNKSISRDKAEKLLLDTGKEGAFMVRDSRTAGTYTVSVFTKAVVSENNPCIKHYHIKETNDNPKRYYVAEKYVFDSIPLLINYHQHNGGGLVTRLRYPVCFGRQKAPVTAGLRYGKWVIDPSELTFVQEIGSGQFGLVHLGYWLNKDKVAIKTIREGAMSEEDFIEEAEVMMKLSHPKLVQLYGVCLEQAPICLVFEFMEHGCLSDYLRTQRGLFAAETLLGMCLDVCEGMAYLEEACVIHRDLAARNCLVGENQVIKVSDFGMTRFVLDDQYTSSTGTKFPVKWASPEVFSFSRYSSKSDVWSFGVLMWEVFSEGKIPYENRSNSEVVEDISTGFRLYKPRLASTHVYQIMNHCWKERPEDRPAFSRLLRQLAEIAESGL
Method in brief: as §1

[1] = 1mM ATP, read-out: BTK IC50(nM) 1mM ATP
[2] = 1mM ATP, read-out: ITK IC50(nM) 1mM ATP
[3] = Km ATP (BTK: 10 uM), read-out: BTK IC50(nM) Km ATP
[4] = Km ATP (ITK: 25uM), read-out: ITK IC50(nM) Km ATP

T1 sequence (Q06187 whole entry): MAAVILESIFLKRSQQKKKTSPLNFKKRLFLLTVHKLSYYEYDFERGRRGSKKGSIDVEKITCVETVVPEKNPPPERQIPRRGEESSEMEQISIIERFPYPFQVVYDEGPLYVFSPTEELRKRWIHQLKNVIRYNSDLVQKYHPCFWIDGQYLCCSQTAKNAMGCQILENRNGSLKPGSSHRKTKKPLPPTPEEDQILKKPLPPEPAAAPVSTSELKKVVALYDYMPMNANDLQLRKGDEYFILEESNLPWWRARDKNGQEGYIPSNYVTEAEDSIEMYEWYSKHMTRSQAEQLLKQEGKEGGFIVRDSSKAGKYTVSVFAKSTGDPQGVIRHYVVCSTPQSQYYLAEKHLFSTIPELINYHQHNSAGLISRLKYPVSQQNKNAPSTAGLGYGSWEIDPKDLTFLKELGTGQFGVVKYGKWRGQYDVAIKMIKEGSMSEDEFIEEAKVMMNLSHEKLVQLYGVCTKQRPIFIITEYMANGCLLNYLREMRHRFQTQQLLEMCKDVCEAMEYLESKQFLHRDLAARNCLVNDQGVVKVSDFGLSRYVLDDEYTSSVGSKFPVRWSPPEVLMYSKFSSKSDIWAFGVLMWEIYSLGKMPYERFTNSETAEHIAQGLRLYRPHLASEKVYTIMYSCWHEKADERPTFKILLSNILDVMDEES

Row | Structure (SMILES) | IC50 (BTK; [1]) [nM] | IC50 (ITK; [2]) [nM] | IC50 (BTK; [3]) [nM] | IC50 (ITK; [4]) [nM]
1 | C=CC(=O)N1CC(C)(Oc2nc(Nc3ncc(C)s3)cc3c2ccn3CC2CC2)C1 [Example 167, 1-(3-((1-(cyclopropylmethyl)-6-((5-methylthiazol-2-yl)amino)-1H-pyrrolo[3,2-c]pyridin-4-yl)oxy)-3-methylazetidin-1-yl)prop-2-en-1-one] | ≤ 20 | ≤ 20 | – | –
2 | C=CC(=O)N1CC[C@H](Oc2nc(Nc3ncc(C)s3)cc3c2ccn3CCF)C1 [Example 188, (S)-1-(3-((1-(2-fluoroethyl)-6-((5-methylthiazol-2-yl)amino)-1H-pyrrolo[3,2-c]pyridin-4-yl)oxy)pyrrolidin-1-yl)prop-2-en-1-one] | ≤ 20 | ≤ 20 | – | –
3 | C=CC(=O)N1CCC[C@H](Oc2nc(Nc3ncc(C)s3)cc3c2ccn3CC(C)CC)C1 (stereo partly drawn) [Example 172, 1-((3S)-3-((1-(2-methylbutyl)-6-((5-methylthiazol-2-yl)amino)-1H-pyrrolo[3,2-c]pyridin-4-yl)oxy)piperidin-1-yl)prop-2-en-1-one] | ≤ 20 | 20 to 100 | – | –
4 | Cc1cnc(Nc2cc3c(ccn3CC(C)C)c(O[C@H]3CCN(C(=O)/C=C/CN(C)C)C3)n2)s1 [Example 227, (S,E)-4-(dimethylamino)-1-(3-((1-isobutyl-6-((5-methylthiazol-2-yl)amino)-1H-pyrrolo[3,2-c]pyridin-4-yl)oxy)pyrrolidin-1-yl)but-2-en-1-one] | > 500 | > 500 | – | –
5 | C=CC(=O)N1CC(C)(Oc2nc(Nc3ncc(C)s3)cc3c2ccn3C)C1 [Example 166, 1-(3-methyl-3-((1-methyl-6-((5-methylthiazol-2-yl)amino)-1H-pyrrolo[3,2-c]pyridin-4-yl)oxy)azetidin-1-yl)prop-2-en-1-one] | ≤ 20 | ≤ 20 | – | –
6 | C=CC(=O)Nc1cccc(-c2nc(Nc3ncc(C)s3)cc3c2ccn3C)c1OC [Example 52, N-(2-methoxy-3-(1-methyl-6-((5-methylthiazol-2-yl)amino)-1H-pyrrolo[3,2-c]pyridin-4-yl)phenyl)acrylamide] | – | – | ≤ 20 | ≤ 20
7 | C=CC(=O)N1CC[C@H](Oc2nc(Nc3ncc(C)s3)cc3c2ccn3[C@@H](C)CC)C1 [Example 111, 1-((S)-3-((1-((S)-sec-butyl)-6-((5-methylthiazol-2-yl)amino)-1H-pyrrolo[3,2-c]pyridin-4-yl)oxy)pyrrolidin-1-yl)prop-2-en-1-one] | ≤ 20 | ≤ 20 | – | –
8 | C=CC(=O)N1CC[C@@H](Oc2nc(Nc3ncc(C)s3)cc3c2ccn3CC2CC2)C1 [Example 144, (R)-1-(3-((1-(cyclopropylmethyl)-6-((5-methylthiazol-2-yl)amino)-1H-pyrrolo[3,2-c]pyridin-4-yl)oxy)pyrrolidin-1-yl)prop-2-en-1-one] | > 500 | > 500 | – | –
9 | C=CC(=O)N1CC[C@H](Oc2nc(Nc3nccnc3OC)cc3c2ccn3C(C)C)C1 [Example 184, (S)-1-(3-((1-isopropyl-6-((3-methoxypyrazin-2-yl)amino)-1H-pyrrolo[3,2-c]pyridin-4-yl)oxy)pyrrolidin-1-yl)prop-2-en-1-one] | > 500 | > 500 | – | –
10 | C=CC(=O)N1CC=C(c2nc(Nc3ncc(C)s3)cc3c2ccn3C)CC1 [Example 1, 1-(4-(1-methyl-6-((5-methylthiazol-2-yl)amino)-1H-pyrrolo[3,2-c]pyridin-4-yl)-3,6-dihydropyridin-1(2H)-yl)prop-2-en-1-one] | – | – | ≤ 20 | ≤ 20
11 | C=CC(=O)N1CC[C@H](Oc2nc(Nc3ncc(C)s3)cc3c2ccn3CCC)C1 [Example 126, (S)-1-(3-((6-((5-methylthiazol-2-yl)amino)-1-propyl-1H-pyrrolo[3,2-c]pyridin-4-yl)oxy)pyrrolidin-1-yl)prop-2-en-1-one] | ≤ 20 | ≤ 20 | – | –
12 | C=CC(=O)N1CC(C)(Oc2nc(Nc3ncc(C)s3)cc3c2ccn3C(C)C)C1 [Example 163, 1-(3-((1-isopropyl-6-((5-methylthiazol-2-yl)amino)-1H-pyrrolo[3,2-c]pyridin-4-yl)oxy)-3-methylazetidin-1-yl)prop-2-en-1-one] | ≤ 20 | ≤ 20 | – | –
13 | C=CC(=O)N1C[C@@H](Oc2nc(Nc3ncc(C)s3)cc3c2ccn3CC2CC2)C[C@@H]1C [Example 180, 1-((2S,4S)-4-((1-(cyclopropylmethyl)-6-((5-methylthiazol-2-yl)amino)-1H-pyrrolo[3,2-c]pyridin-4-yl)oxy)-2-methylpyrrolidin-1-yl)prop-2-en-1-one] | ≤ 20 | ≤ 20 | – | –
14 | C=CC(=O)N1CC[C@H](Oc2nc(Nc3ncc(C)s3)cc3c2ccn3[C@H](C)C(F)(F)F)C1 [Example 213, 1-((S)-3-((6-((5-methylthiazol-2-yl)amino)-1-((R)-1,1,1-trifluoropropan-2-yl)-1H-pyrrolo[3,2-c]pyridin-4-yl)oxy)pyrrolidin-1-yl)prop-2-en-1-one] | ≤ 20 | ≤ 20 | – | –
15 | C=CC(=O)N1C[C@@H](F)[C@H](Oc2nc(Nc3ncc(C)s3)cc3c2ccn3CC)C1 [Example 154, 1-((3R,4R)-3-((1-ethyl-6-((5-methylthiazol-2-yl)amino)-1H-pyrrolo[3,2-c]pyridin-4-yl)oxy)-4-fluoropyrrolidin-1-yl)prop-2-en-1-one] | ≤ 20 | ≤ 20 | – | –
16 | C=CC(=O)N1CC=C(c2nc(Nc3ncc(C)s3)cc3c2ccn3[C@@H](C)CC)CC1 [Example 13, (S)-1-(4-(1-(sec-butyl)-6-((5-methylthiazol-2-yl)amino)-1H-pyrrolo[3,2-c]pyridin-4-yl)-3,6-dihydropyridin-1(2H)-yl)prop-2-en-1-one] | – | – | ≤ 20 | ≤ 20
17 | C=CC(=O)N1CC[C@H](Oc2nc(Nc3ncc(C)s3)cc3c2ccn3C2CCCC2)C1 [Example 99, (S)-1-(3-((1-cyclopentyl-6-((5-methylthiazol-2-yl)amino)-1H-pyrrolo[3,2-c]pyridin-4-yl)oxy)pyrrolidin-1-yl)prop-2-en-1-one] | ≤ 20 | ≤ 20 | – | –
18 | C=CC(=O)N1CC=C(c2nc(Nc3ncc(C)s3)cc3c2ccn3CC2CCCC2)CC1 [Example 10, 1-(4-(1-(cyclopentylmethyl)-6-((5-methylthiazol-2-yl)amino)-1H-pyrrolo[3,2-c]pyridin-4-yl)-3,6-dihydropyridin-1(2H)-yl)prop-2-en-1-one] | – | – | ≤ 20 | 20 to 100
19 | C=CC(=O)N1CC[C@@H]1COc1nc(Nc2ncc(C)s2)cc2c1ccn2C1CCCC1 [Example 223, (R)-1-(2-(((1-cyclopentyl-6-((5-methylthiazol-2-yl)amino)-1H-pyrrolo[3,2-c]pyridin-4-yl)oxy)methyl)azetidin-1-yl)prop-2-en-1-one] | ≤ 20 | ≤ 20 | – | –
20 | C=CC(=O)N1C[C@@H](F)[C@H](Oc2nc(Nc3ncc(C)s3)cc3c2ccn3CCC)C1 [Example 161, 1-((3R,4R)-3-fluoro-4-((6-((5-methylthiazol-2-yl)amino)-1-propyl-1H-pyrrolo[3,2-c]pyridin-4-yl)oxy)pyrrolidin-1-yl)prop-2-en-1-one] | ≤ 20 | ≤ 20 | – | –
21 | C=CC(=O)N1CC[C@@H](Oc2nc(Nc3ncc(C)s3)cc3c2ccn3CC(C)C)C1 (stereo in doubt) [Example 82, (R)-1-(3-((1-isobutyl-6-((5-methylthiazol-2-yl)amino)-1H-pyrrolo[3,2-c]pyridin-4-yl)oxy)pyrrolidin-1-yl)prop-2-en-1-one] | > 500 | > 500 | – | –
22 | C=CC(=O)N1CC[C@H](Oc2nc(Nc3nccc(OC)n3)cc3c2ccn3C(C)C)C1 [Example 183, (S)-1-(3-((1-isopropyl-6-((4-methoxypyrimidin-2-yl)amino)-1H-pyrrolo[3,2-c]pyridin-4-yl)oxy)pyrrolidin-1-yl)prop-2-en-1-one] | > 500 | > 500 | – | –
23 | C=CC(=O)N1C[C@@H](F)[C@H](Oc2nc(Nc3ncc(C)s3)cc3c2ccn3CC2CCCC2)C1 [Example 170, 1-((3R,4R)-3-((1-(cyclopentylmethyl)-6-((5-methylthiazol-2-yl)amino)-1H-pyrrolo[3,2-c]pyridin-4-yl)oxy)-4-fluoropyrrolidin-1-yl)prop-2-en-1-one] | ≤ 20 | ≤ 20 | – | –
24 | C=CC(=O)N1C[C@@H](F)[C@H](Oc2nc(Nc3ncc(C)s3)cc3c2ccn3C[C@H](C)CC)C1 [Example 174, 1-((3R,4R)-3-fluoro-4-((1-((R)-2-methylbutyl)-6-((5-methylthiazol-2-yl)amino)-1H-pyrrolo[3,2-c]pyridin-4-yl)oxy)pyrrolidin-1-yl)prop-2-en-1-one] | ≤ 20 | ≤ 20 | – | –

Source: patent EP4707277A1, “NOVEL HETEROCYCLIC AMINE DERIVATIVES AND PHARMACEUTICAL COMPOSITION COMPRISING SAME” (Daewoong Pharmaceutical Co., Ltd., priority 2023, dated 2024)
